According to PubChem BioAssay AID602210 (Sanford-Burnham Center for Chemical Genomics, 2012):
Active and inactive are the calls of the source. No rule for the calls is given here.

Assay: modulators of 2-deoxyglucose-induced H9c2 death, dose response, myocardial damage modulator project, cell-based, ATPlite luminescence, rat, set 2 (AID 602210)
Details: H9c2 rat cardiomyoblasts, 2-deoxyglucose-induced death, 2 h

Row | Structure (SMILES) | IC50
1 | Brc1ccc(-c2ccc(/C=N/Nc3nc(N4CCOCC4)nc(N4CCOCC4)n3)o2)cc1 | 5.7 µM
2 | COc1cccc(-c2cnc3c(NC=O)cc(-c4ccc(O)c(OC)c4)cn23)c1 | 8.51 µM
3 | Cc1c(C(=O)Nc2ccc3nc(N4CCOCC4)sc3c2)oc2ccccc12 | 15.8 µM (inactive)
4 | COC(=O)c1ccc(OCC(=O)Nc2ccccc2C(=O)NC2CC2)cc1 | 11.2 µM (inactive)
5 | CCOC(=O)C1CCN(c2cc3c(cc2NC(=O)c2ccc(OC)c(OC)c2)n(C)c(=O)n3C)CC1 | 4.59 µM
6 | O=C(N/N=C\c1ccccn1)c1cccc(C(=O)N/N=C\c2ccccn2)n1 | 10.2 µM (inactive)
7 | O=C(c1cc(=O)[nH]c2ccccc12)N1CCN(S(=O)(=O)c2ccc(Cl)cc2)CC1 | 7.15 µM
8 | Cn1c(=O)[nH]c(=O)c2c1nc(N(CCO)Cc1ccccc1)n2CCCc1ccccc1 | > 79 µM (inactive)
9 | COc1ccc(-c2cc(NC(C)=O)c3ncc(-c4cccc(C(C)=O)c4)n3c2)cc1OC | 8.06 µM
10 | COCCN1Cc2cccc(C(=O)Nc3cccc(-c4nc5ccccc5[nH]4)c3)c2C1=O | 3.71 µM
11 | CCOC(=O)c1cc2c(=O)n3cccc(C)c3nc2n(CCCOC)c1=NC(=O)c1cccnc1 | 11.3 µM (inactive)
12 | COc1cc(/C=N/NC(=O)c2ccccc2)ccc1OS(=O)(=O)c1ccccc1 | 13.5 µM (inactive)
13 | COc1ccc(/C=N/NC(=O)c2ccc(COc3cccc4cccnc34)cc2)cc1OC | 12.1 µM (inactive)
14 | NS(=O)(=O)c1ccc(CCNc2ccn3nc(-c4ccc(OCCN5CCOCC5)cc4)cc3n2)cc1 | 45.8 µM (inactive)
15 | CCOc1ccc(C(C(=O)NCC2CCCO2)N(C(=O)c2snc(C(N)=O)c2N)c2ccccc2F)cc1 (configuration not stated) | 24 µM (inactive)
16 | O=C(NC1CCCCC1)C(c1ccc2ncccc2c1)N(Cc1ccco1)C(=O)c1ccc2c(c1)OCCO2 (configuration not stated) | 42.5 µM (inactive)
17 | Nc1c(C(=O)N/N=C/c2cccnc2)oc2nc(-c3ccccc3)cc(-c3ccco3)c12 | 3.52 µM
18 | COc1cccc(/C=N/NC(=O)c2ccncc2)c1OC(=O)c1ccc(Br)cc1 | 28.3 µM (inactive)
19 | CC(=O)c1cccc(NC(=O)Nc2ccc3c(c2)N(C)C(=O)CS3)c1 | > 79 µM (inactive)
20 | CCCCn1nc(NC(=O)c2cccs2)c2cc3cc(OC)ccc3nc21 | > 79 µM (inactive)
21 | COc1ccc(CCNc2nc(-c3cccnc3)nc3ccccc23)cc1OC | 8.24 µM

Row | Structure (SMILES) | IC50
22 | COc1cc(C(=O)Nc2nc(-c3cccs3)cs2)cc(OC)c1OC | 8.7 µM
23 | O=C(c1ccccc1)c1ccc2nc(N3CCN(C(=O)c4ccco4)CC3)c3nncn3c2c1 | 21.9 µM (inactive)
24 | CC(=O)Nc1cc(C)nn1-c1nc2ccccc2s1 | > 79 µM (inactive)
25 | Fc1ccc(-n2cc(-c3ccccc3)c3c(N4CCOCC4)ncnc32)cc1 | 6.7 µM
26 | Cc1nn(C)cc1C(C(=O)NC1CCCCC1)N(C(=O)Cc1cccs1)c1ccc(Cl)cc1 (configuration not stated) | 29.8 µM (inactive)
27 | CCOc1ccccc1NC(=O)c1oc2ccccc2c1NC(=O)C1CCCO1 (configuration not stated) | 12.6 µM (inactive)
28 | O=C(NCC(=O)N(Cc1cccs1)C(C(=O)NC1CCCC1)c1ccco1)c1cccs1 (configuration not stated) | 24.5 µM (inactive)
29 | COc1ccc(N(Cc2cc3cc(OC)ccc3[nH]c2=O)C(=O)c2cccnc2)cc1 | > 79 µM (inactive)
30 | COC(=O)c1cccc(S(=O)(=O)N(Cc2ccco2)Cc2cc3cc(OC)ccc3[nH]c2=O)c1 | 11.6 µM (inactive)
31 | Cc1ccccc1NP(=O)(Oc1ccccc1F)Oc1ccccc1F | > 79 µM (inactive)
32 | COc1cccc(C(=O)Nc2c(C(N)=O)oc3ccccc23)c1 | 15.1 µM (inactive)
33 | Cc1cccc(NC(=O)c2nc[nH]c2C(=O)NCCCCNC(=O)c2[nH]cnc2C(=O)Nc2cccc(C)c2)c1 | 3.32 µM
34 | C[C@H](NC(=O)c1nc[nH]c1C(=O)NCC(=O)OCc1ccccc1)C(=O)OCc1ccccc1 | 2.8 µM
35 | CC(=O)Nc1cccc(-c2cc(NC=O)c3ncc(-c4ccc(C(C)=O)cc4)n3c2)c1 | 13.6 µM (inactive)
36 | CCN(CC)C(=O)c1[nH]cnc1C(=O)NCC(=O)OCc1ccccc1 | 8.7 µM
37 | COc1cc(-c2cc(C(=O)NCc3ccco3)c3ccccc3n2)cc(OC)c1OC | 16.4 µM (inactive)
38 | O=C1NC(Cc2ccc(O)cc2)c2nc3ccc(F)cc3c(=O)n2-c2cc3ccccc3cc21 (configuration not stated) | 11.1 µM (inactive)
39 | CCn1nc(C(=O)NNC(=O)c2cc(Cl)ccc2OC)c2ccccc2c1=O | > 79 µM (inactive)
40 | COc1ccc2[nH]c(=O)c(CN(Cc3cccnc3)S(=O)(=O)c3ccccc3F)cc2c1 | 2.74 µM
41 | COc1ccc(-c2cc3nc(-c4ccccc4)cc(N4CCN(C(=O)c5ccoc5)CC4)n3n2)cc1 | 7.21 µM
42 | COc1cccc(OC)c1C(=O)Nc1cc(C)nn1-c1nc2ccccc2[nH]1 | 4.52 µM
